Measured values from PubChem BioAssay (NCI).
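Assay format: 96-well plates, 48-hour exposure. GI50 marks 50% less growth. TGI: total growth inhibition.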

Experiments:
Assay in all cases: NCI anticancer screen, dose series, 48 h
SR leukemia = system: SR leukemia
OVCAR-3 ovarian = system: OVCAR-3 ovarian
HL-60(TB) leukemia = system: HL-60(TB) leukemia
SNB-19 CNS = system: SNB-19 CNS
SK-MEL-2 melanoma = system: SK-MEL-2 melanoma
RPMI-8226 leukemia = system: RPMI-8226 leukemia
UACC-62 melanoma = system: UACC-62 melanoma
HOP-62 NSCLC = system: HOP-62 NSCLC
IGROV1 ovarian = system: IGROV1 ovarian
M14 melanoma = system: M14 melanoma

| SMILES | TGI (SR leukemia) [µM] | TGI (OVCAR-3 ovarian) [µM] | TGI (HL-60(TB) leukemia) [µM] | TGI (SNB-19 CNS) [µM] | TGI (SK-MEL-2 melanoma) [µM] | TGI (RPMI-8226 leukemia) [µM] | TGI (UACC-62 melanoma) [µM] | TGI (HOP-62 NSCLC) [µM] | TGI (IGROV1 ovarian) [µM] | TGI (M14 melanoma) [µM] | GI50 (SR leukemia) [µM] | GI50 (OVCAR-3 ovarian) [µM] | GI50 (HL-60(TB) leukemia) [µM] | GI50 (SNB-19 CNS) [µM] | GI50 (SK-MEL-2 melanoma) [µM] | GI50 (RPMI-8226 leukemia) [µM] | GI50 (UACC-62 melanoma) [µM] | GI50 (HOP-62 NSCLC) [µM] | GI50 (IGROV1 ovarian) [µM] | GI50 (M14 melanoma) [µM] |
| --- | --- | --- | --- | --- | --- | --- | --- | --- | --- | --- | --- | --- | --- | --- | --- | --- | --- | --- | --- | --- |
| CCC(C)C(=O)c1c(O)c(C/C=C(\C)CCC=C(C)C)c(O)c2c(C(O)CC)cc(=O)oc12 (centres undefined) | 3.48 | 12.6 | 3.48 | 16.2 | 3.83 | 3.51 | 5.15 | 4.08 | 13.6 | 14.4 |  |  |  |  |  |  |  |  |  |  |
| CCOC(=O)/C=C(\C)c1ccc(OC)cc1 | > 100 |  | > 100 | > 100 | > 100 | > 100 |  |  | > 100 | > 100 |  |  |  |  |  |  |  |  |  |  |
| COc1ccc(NC(=O)/C(=C/c2ccc(N(CCC#N)CCC#N)cc2)NC(=O)c2cc([N+](=O)[O-])ccc2Cl)cc1 | > 100 | > 100 |  | > 100 | > 100 | > 100 | > 100 | > 100 | > 100 | > 100 |  |  |  |  |  |  |  |  |  |  |
| CC(C)C[P+](c1ccccc1)(c1ccccc1)c1ccccc1 |  | 84.6 | 24 | > 100 | 41.7 | 0.033 | > 100 | > 100 | > 100 | > 100 |  |  |  |  |  |  |  |  |  |  |
| COc1ccc(NC(=O)/C(CC2=Nc3ccc([N+](=O)[O-])cc3NC2O)=N\NC(=O)C[N+](C)(C)C)c(OC)c1 (centres undefined) | 48.6 | > 100 | > 100 | > 100 | > 100 |  | > 100 | > 100 | > 100 | > 100 |  |  |  |  |  |  |  |  |  |  |
| CC1(C)N=C(N)N=C(N)N1c1cccc(OCCOc2ccc([N+](=O)[O-])cc2)c1 | > 100 | > 100 | > 100 | > 100 | > 100 | > 100 |  | > 100 | > 100 | > 100 |  |  |  |  |  |  |  |  |  |  |
| N#Cc1c(NC(=S)NC(=O)c2ccccc2)nc2c(c1-c1ccccc1)CCCC2 | > 100 | > 100 | > 100 | > 100 |  | > 100 | > 100 | > 100 | > 100 | > 100 |  |  |  |  |  |  |  |  |  |  |
| COc1cc(C2c3cc4c(cc3[C@@H](Nc3cccc(C(C)=O)c3)C3COC(=O)[C@H]23)OCO4)cc(OC)c1O (some centres undefined) |  | 13.9 | 0.328 | 4.79 | 7.43 | 2.21 | 4.67 | 0.538 | 24.6 |  |  |  |  |  |  |  |  |  |  |  |
| ClCc1c(Cl)c(Cl)c(Cl)c(CCl)c1Cl | 5 | 3.26 | 4.07 | 4.23 | 5.07 | 4.24 | 3.13 | 4.25 | 4.19 | 3.43 | 1.48 | 1.86 | 2.03 | 1.94 | 2.2 | 1.86 | 1.61 | 2.15 | 1.97 | 1.66 |
| NCc1ccc(C(=O)O)cc1 | > 100 | > 100 | > 100 | > 100 |  |  | > 100 | > 100 | > 100 | > 100 |  |  |  |  |  |  |  |  |  |  |
| CCO/N=[N+](\[O-])N(CC)CC | > 100 | > 100 | > 100 | > 100 | > 100 |  | > 100 | > 100 | > 100 | > 100 |  |  |  |  |  |  |  |  |  |  |
| COc1ccc(-c2cc(N3CCN(c4ccccc4)CC3)c(C#N)c(=O)o2)cc1 | > 100 |  | > 100 | 49.8 | 53.6 | > 100 |  |  | > 100 | > 100 |  |  |  |  |  |  |  |  |  |  |
| Cc1nc2ccccc2c(=O)[nH]1 |  | > 100 | > 100 | > 100 | > 100 | > 100 | > 100 | > 100 | > 100 | > 100 |  |  |  |  |  |  |  |  |  |  |
| C#CC[C@@H]1C[C@]2(C)[C@H]3CC=C4[C@H]5CC(C)(C)CC[C@]5(C(=O)NCCCCN)CC[C@@]4(C)[C@]3(C)CC[C@H]2C(C)(C)[C@H]1OC(C)=O |  |  | 3.71 |  | 3.45 |  | 3.34 |  | 3.02 |  |  |  | 1.77 |  | 1.78 |  | 1.86 |  | 1.62 |  |
| Cn1c(-c2ccc(/C=N\N3CCN(/N=C/c4ccc(-c5c[n+]6ccccc6n5C)cc4)CC3)cc2)c[n+]2ccccc12 | > 100 | > 100 | 56.9 | > 100 | > 100 | > 100 | > 100 |  | > 100 | > 100 |  |  |  |  |  |  |  |  |  |  |
| CC[n+]1c(/C=C/c2ccc(N(CCCl)CCCl)cc2)ccc2cc(NC(=O)/C=C/c3ccccc3)ccc21 | 0.728 | 11.4 | 0.389 | 1.67 | 1.27 | 0.696 | 2.28 | 1.74 | 1.86 | 3.28 |  |  |  |  |  |  |  |  |  |  |
| COc1ccc(CC(C)N)cc1 (centres undefined) | > 100 | > 100 | > 100 | > 100 | > 100 | > 100 | > 100 | > 100 | > 100 | > 100 |  |  |  |  |  |  |  |  |  |  |
| Brc1ccccc1-c1ncc(-c2ccccc2)o1 |  | 89.6 | > 100 | > 100 | 89.9 | 48.8 | > 100 | 96.8 | 78.7 | > 100 |  |  |  |  |  |  |  |  |  |  |
